Assay results as given in patent US7488791B2, “Mixture of peptides derived from E6 and/or E7 papillomavirus proteins and uses thereof” (priority 2001, dated 2009).

Columns and labels:
[1] = system: CD4+ T lymphocytes; experiment: Proliferation assay ([3H]-thymidine incorporation) of PBMCs / cells from patients having bowenoid papulosis; format: cell-based, human; conditions: patient, DR 1501, DRB5
Protocol: A suspension of cells (PBMCs, CD8+ cell-depleted PBMCs, T lymphocytes pre-enriched by a step of culturing in vitro with the peptides selected according to the invention, or cloned T lymphocytes) is cultured for 3 to 5 days in the presence of the selected peptides and, as needed, of suitable presenting cells, such as dendritic cells, autologous or heterologous PBMCs, lymphoblastoid cells such as those obtained after infection with the EBV virus or genetically modified cells. The cell proliferation is measured by incorporation of tritiated thymidine into the DNA of the cells. The peptides selected in accordance with the invention make it possible to reveal, in the initial suspension, the presence of cells specific for these peptides. • as regards the ELISPOT assay:
To verify the stimulation of CD4+ T cell proliferation using immunogenic composition according to the invention, a proliferation assay is performed in vitro.
The cells (PBMCs) extracted from peripheral blood were cultured in 96-well microplates in a proportion of 2×10^5 cells per well, in a final volume of 200 μl of complete medium. The cells were or were not stimulated with 10 μg/ml of a mixture of peptides according to the invention. […] The cells were recovered and the [^3H]-thymidine incorporation was measured in a cellular DNA. […]

[2] = system: DR7-restricted clone; conditions: Strang et al.; cited from earlier work

Compound	Prolif: peptide recognized, in terms of proliferation, by the CD4+ T lymphocytes [1]	Recognition by T cell clone [2]
CC[C@H](C)[C@H](N)C(=O)N[C@@H](CCCNC(=N)N)C(=O)NCC(=O)N[C@@H](CCCNC(=N)N)C(=O)N[C@@H](Cc1c[nH]c2ccccc12)C(=O)N[C@H](C(=O)NCC(=O)N[C@@H](CCCNC(=N)N)C(=O)N[C@@H](CS)C(=O)N[C@@H](CCSC)C(=O)N[C@@H](CO)C(=O)N[C@@H](CS)C(=O)N[C@@H](CS)C(=O)N[C@@H](CCCNC(=N)N)C(=O)N[C@@H](CO)C(=O)N[C@@H](CO)C(=O)N[C@@H](CCCNC(=N)N)C(=O)N[C@H](C(=O)N[C@@H](CCCNC(=N)N)C(=O)N[C@@H](CCCNC(=N)N)C(=O)N[C@@H](CCC(=O)O)C(=O)N[C@H](C(=O)N[C@@H](CCC(N)=O)C(=O)N[C@@H](CC(C)C)C(=O)O)[C@@H](C)O)[C@@H](C)O)[C@@H](C)O [E6/10]	weak	–
E6: 42-57: HPV16 E6 peptide, positions 42-57, Strang et al. (QQLLRREVYDFAFRDL; UniProt P03126 42-57, looked up, fragment)	–	Recognized by DR7-restricted
